Measurements published in patent US6900216B2, “Dihydroimidazo[2,1-b]thiazole and dihydro-5h-thiazolo[3,2-A]pyrimidines as antidepressant agents” (Knoll GmbH, priority 2000, dated 2005).
Read-outs that look alike come from different tables or passages of the source.

Tests used:
[1] = target: T1, noradrenaline (NA) reuptake sites (Rattus norvegicus, UniProt Q63380); test: NA uptake: displacement of [3H]nisoxetine from noradrenaline reuptake sites, rat frontal cortical membranes; type: binding; conditions: for inhibition at 1 µM: read-out: NA uptake % displacement at 10^−6 M; for Ki: [3H]nisoxetine 0.6 nM, rat frontal cortical membranes, fit to data from three experiments
T1 construct: Frontal cortical tissue from the brains of male Charles River rats; from tissue; host or cells: rat frontal cortical membranes
T1 sequence (Q63380 1-617): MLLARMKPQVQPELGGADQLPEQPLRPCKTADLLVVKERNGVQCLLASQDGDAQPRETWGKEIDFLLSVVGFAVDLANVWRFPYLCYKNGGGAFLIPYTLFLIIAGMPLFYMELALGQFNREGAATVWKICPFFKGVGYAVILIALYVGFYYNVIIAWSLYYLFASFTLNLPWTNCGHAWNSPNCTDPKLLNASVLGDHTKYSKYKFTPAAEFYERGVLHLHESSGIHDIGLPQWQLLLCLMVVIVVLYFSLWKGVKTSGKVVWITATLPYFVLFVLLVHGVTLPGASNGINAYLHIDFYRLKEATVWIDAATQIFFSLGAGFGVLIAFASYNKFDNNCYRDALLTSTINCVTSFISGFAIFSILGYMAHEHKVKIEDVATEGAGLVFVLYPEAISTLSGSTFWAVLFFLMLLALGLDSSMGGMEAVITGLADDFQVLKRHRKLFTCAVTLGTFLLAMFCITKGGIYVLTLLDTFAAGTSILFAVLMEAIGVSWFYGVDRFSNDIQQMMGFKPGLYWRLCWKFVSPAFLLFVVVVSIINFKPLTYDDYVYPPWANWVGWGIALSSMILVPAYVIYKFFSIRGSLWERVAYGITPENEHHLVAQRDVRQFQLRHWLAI
Procedure: (§1) Frontal cortical tissue from the brains of male Charles River rats weighing 150-250 g was homogenised in ice-cold 50 mM Tris-HCl, pH 7.4 (at 25° C.) containing 120 mM sodium chloride and 5 mM potassium chloride (Tris buffer; 1:60 w/v) using a Kinematic polytron (speed setting 6 for 10 seconds) and centrifuged at 40,000 g for 10 minutes. The supernatant was discarded and the pellet rehomogenised in Tris buffer, 1:60 w/v, and centrifuged at 40,000 g for 10 minutes. This step was repeated twice more so that, in total, the brain tissue was homogenised and centrifuged four times. The final pellet was resuspended in 50 mM Tris-HCl, pH 7.4 containing 300 mM sodium chloride and 5 mM potassium chloride (equivalent to 18.75 mg wet weight of tissue/ml) and used immediately in the binding assay. All centrifugations were performed at 4° C.
Membranes (400 μl; equivalent to 7.5 mg wet weight of tissue/tube) were incubated with 50 μl [^3H]nisoxetine at a single concentration of 0.6 nM and 50 μl of distilled water (total binding) or 50 μl^− of test compound (at a single concentration 10^−6M or at 10 concentrations ranging from 10^−11-10^−3 M) or 50 μl of mazindol (1 μM; non-specific binding) for 4 h at 4° C. Membrane bound radioactivity was recovered by filtration under vacuum through Skatron 11734 filters using a Skatron cell harvester. Filters were rapidly washed with ice-cold 50 mM Tris-HCl, pH 7.4 containing 120 mM sodium chloride and 5 mM potassium chloride (wash setting 9,9,0). The scored filter paper discs were punched out into vials, scintillation fluid added and radioactivity determined by liquid scintillation counting.
(§2) For each of these tests measuring the ability of compounds of Formula I to displace standard ligands from 5-HT1A receptors and 5-hydroxytryptamine (5-HT) and noradrenaline (NA) reuptake sites and muscarinic receptors in vitro, the percentage displacement of specific binding of tritiated ligand by 10^−6 M test compound was calculated in the following way.
(§3) Firstly, specific binding of tritiated ligand in the absence (A) and presence (B) of test compound was determined:
(§4) In the absence of compound: A(dpm)=Total binding (dpm)−Non-specific binding (dpm) In the presence of compound (10^−6 M): B(dpm)=Binding at 10^−6M (dpm)−Non-specific binding (dpm)
(§5) The specific binding of tritiated ligand in the presence (B) of compound was then converted to a percentage of specific binding of tritiated ligand in the absence (A) of compound: % Specific binding at 10^−6 M=B(dpm)/A(dpm)×100
(§6) The percentage displacement of specific binding of tritiated ligand by the test compound (10^−6 M) was then obtained by subtraction of the percentage specific binding in the presence of compound from the percentage specific binding in the absence of compound, which is taken as the maximum binding and so equals 100%:
(§7) % Displacement at 10^−6 M=100−% Specific binding at 10^−6 M.
In some cases, displacement curves were then produced for compounds which displaced ≧50% of specific binding of the tritiated ligand at 10^−6 M using a range of concentrations of the compound. The Ki was then calculated by simultaneous fitting using equations derived from the Feldman equations by robust non-linear regression to data from three experiments simultaneously (De Lean et al., 1978; Munson and Rodbard, 1980; Feldman, 1992). Munson P J and Rodbard D. Ligand: a versatile computerised approach for characterisation of ligand binding systems. Anal Biochem 1980; 107: 220. Feldman HA. Mathematical theory of complex ligand binding systems at equilibrium: some methods for parameter fitting. Anal Biochem 1992: 48, 317. De Lean A, Munson P J and Rodbard D. Simultaneous analysis of families of sigmoidal curves: application to bioassay, radioligand assay, and physiological dose-response curves. Am J Physiol 1978: 235 (2), E97-E102. […]

5-HT reuptake sites = target: T2, 5-HT reuptake sites (Rattus norvegicus, UniProt P31652); test: 5-HT uptake: displacement of [3H]citalopram from 5-HT reuptake sites, rat frontal cortical membranes; type: binding; conditions: for inhibition at 1 µM: 10^−6 M test compound, single determination, [3H]citalopram; for Ki: [3H]citalopram 1.3 nM, rat frontal cortical membranes, fit to data from three experiments
T2 construct: Frontal cortical tissue from the brains of male Charles River rats; from tissue; host or cells: rat frontal cortical membranes
T2 sequence (P31652 whole entry): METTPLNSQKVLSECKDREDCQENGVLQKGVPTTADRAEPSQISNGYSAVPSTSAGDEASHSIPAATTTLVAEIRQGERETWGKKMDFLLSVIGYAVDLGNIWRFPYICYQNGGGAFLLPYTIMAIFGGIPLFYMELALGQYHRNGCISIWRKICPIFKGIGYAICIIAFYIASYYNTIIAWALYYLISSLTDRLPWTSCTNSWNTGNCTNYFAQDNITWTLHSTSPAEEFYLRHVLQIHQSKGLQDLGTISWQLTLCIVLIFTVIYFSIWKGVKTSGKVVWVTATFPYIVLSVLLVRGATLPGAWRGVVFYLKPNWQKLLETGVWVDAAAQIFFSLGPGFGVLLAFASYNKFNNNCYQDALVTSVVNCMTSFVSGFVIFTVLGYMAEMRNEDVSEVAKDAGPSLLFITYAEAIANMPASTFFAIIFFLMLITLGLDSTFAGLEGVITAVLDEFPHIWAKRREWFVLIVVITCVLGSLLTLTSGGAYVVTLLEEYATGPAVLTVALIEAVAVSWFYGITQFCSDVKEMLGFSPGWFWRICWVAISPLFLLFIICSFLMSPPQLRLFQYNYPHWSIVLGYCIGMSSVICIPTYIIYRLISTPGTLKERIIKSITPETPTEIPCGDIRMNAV
Procedure: as §1, with “7.4 (when measured at” for “7.4 (at”, “buffer; 1:30” for “buffer; 1:60”, “w/v)” for “w/v) using a Kinematic polytron (speed setting 6 for 10 seconds)”, “repeated a further time.” for “repeated twice more so that, in total, the brain tissue was homogenised and centrifuged four times.”, “containing 120” for “containing 300”, “to 3.125” for “to 18.75”
Membranes (400 μl; equivalent to 1.25 mg wet weight of tissue/tube) were incubated with 50 μl [^3H]citalopram at a single concentration of 1.3 nM and 50 μl of distilled water (total binding) or 50 μl of test compound (at a single concentration of 10^−6 M or at 10 concentrations ranging from 10^−11-10^−3 M) or 50 μl of paroxetine (0.5 μM; non-specific binding) for 1 h at 27° C. Membrane bound radioactivity was recovered by filtration under vacuum through Skatron 11734 filters presoaked in 0.5% PEI using a Skatron Cell Harvester. Filters were then washed in ice-cold 50 mM Tris-HCl buffer, pH 7.4 (at 25° C., wash setting 9,9,0). The scored filter paper discs were punched out into vials, scintillation fluid added and radioactivity determined by liquid scintillation counting.
as §2, §3, §4, §5, §6, §7
In some cases, displacement curves were then produced for compounds which displaced ≧50% of specific binding of the tritiated ligand at 10^−6 M using a range of concentrations of the compound. The Ki was then calculated by simultaneous fitting using equations derived from the Feldman equations by robust non-linear regression to data from three experiments simultaneously (De Lean et al., 1978; Munson and Rodbard, 1980; Feldman, 1992). Munson P J and Rodbard D. Ligand: a versatile computerised approach for characterisation of ligand binding systems. Anal Biochem 1980; 107: 220. Feldman HA. Mathematical theory of complex ligand binding systems at equilibrium: some methods for parameter fitting. Anal Biochem 1992: 48, 317. De Lean A, Munson P J and Rodbard D. Simultaneous analysis of families of sigmoidal curves: application to bioassay, radioligand assay, and physiological dose-response curves. Am J Physiol 1978: 235 (2), E97-E102.
The results obtained in the above tests for 5-HT1A binding and 5-HT and NA uptake and muscarinic binding for the final products of Examples 1-39 hereinafter are given in Table 1 below. Kis are in nM. % Figures are for % displacement at 10^−6 M for a single determination.

Row | Structure (SMILES) | melting point | inhibition at 1 µM [1] | inhibition at 1 µM (5-HT reuptake sites) | Ki [1] | Ki (5-HT reuptake sites) | inhibition at 1 µM ([1]; 10^−6 M test compound, single determination, [3H]nisoxetine)
1 | Br.Clc1cccc2sc(C3=CSC4=NCCN34)cc12 [Example 1, 3-(4-chlorobenzo[b]thiophen-2-yl)-5,6-dihydroimidazo[2,1-b]thiazole hydrobromide] | 273 to 274 °C | 103% | 97% |  |  | 
2 | C1=C(c2cccc3sccc23)N2CCN=C2S1.Cl [Example 2, 3-(benzo[b]thiophen-4-yl)-5,6-dihydroimidazo[2,1-b]thiazole hydrochloride] | 246 to 249 °C |  |  | 9.1 nM | 45 nM | 
3 | OCC1=C(c2cccc3sccc23)N2CCN=C2S1 [Example 3, [3-(benzo[b]thiophen-4-yl)-5,6-dihydroimidazo[2,1-b]thiazol-2-yl]methanol] | 145 to 149 °C |  |  | 2.9 nM | 175 nM | 
4 | OCC1=C(c2cc3c(Cl)cccc3s2)N2CCN=C2S1 [Example 4, [3-(4-chlorobenzo[b]thiophen-2-yl)-5,6-dihydroimidazo[2,1-b]thiazol-2-yl]methanol] | 170 to 172 °C |  |  | 25 nM | 36 nM | 
5 | Cl.Fc1cccc2sc(C3=CSC4=NCCN34)cc12 [Example 5, 3-(4-fluorobenzo[b]thiophen-2-yl)-5,6-dihydroimidazo[2,1-b]thiazole hydrochloride] | 220 to 224 °C | 100% | 95% |  |  | 
6 | Br.CC1=C(c2cc3ccccc3s2)N2CCN=C2S1 [Example 6, 3-(benzo[b]thiophen-2-yl)-2-methyl-5,6-dihydroimidazo[2,1-b]thiazole hydrobromide] | 257 to 259 °C (dec.) |  |  | 21 nM | 44.4 nM | 
7 | Br.CC1=C(c2cc3c(F)cccc3s2)N2CCN=C2S1 [Example 7, 3-(4-fluorobenzo[b]thiophen-2-yl)-2-methyl-5,6-dihydroimidazo[2,1-b]thiazole hydrobromide] | 224 to 226 °C |  |  | 9.5 nM | 127 nM | 
8 | Br.CC1=C(c2cccc3sccc23)N2CCN=C2S1 [Example 8, 3-(benzo[b]thiophen-4-yl)-2-methyl-5,6-dihydroimidazo[2,1-b]thiazole hydrobromide] |  |  |  | 6.1 nM | 275 nM | 
9 | CC1=C(c2cccc3sccc23)N2CCN=C2S1.Cl [Example 9, 3-(benzo[b]thiophen-4-yl)-2-methyl-5,6-dihydroimidazo[2,1-b]thiazole hydrochloride] |  |  |  | 5.9 nM | 387 nM | 
10 | Br.CC1=C(c2cc3c(Cl)cccc3s2)N2CCN=C2S1 [Example 10, 3-(4-chlorobenzo[b]thiophen-2-yl)-2-methyl-5,6-dihydroimidazo[2,1-b]thiazole hydrobromide] | 246 to 248 °C |  |  | 69.5 nM | 29.3 nM | 
11 | Br.CCC1=C(c2cc3cc(Cl)ccc3s2)N2CCN=C2S1 [Example 11, 3-(5-chlorobenzo[b]thiophen-2-yl)-2-ethyl-5,6-dihydroimidazo[2,1-b]thiazole hydrobromide] | 282 to 284 °C | 92% | 97% |  |  | 
12 | Br.Oc1cccc2sc(C3=CSC4=NCCN34)cc12 [Example 12, 2-(5,6-dihydroimidazo[2,1-b]thiazol-3-yl)benzo[b]thiophen-4-ol hydrobromide] |  |  |  | 5.8 nM | 16 nM | 
13 | Br.CCC1=C(c2cccc3sccc23)N2CCN=C2S1 [Example 13, 3-(benzo[b]thiophen-4-yl)-2-ethyl-5,6-dihydroimidazo[2,1-b]thiazole hydrobromide] | 144 to 146 °C |  |  | 3.6 nM | 84 nM | 
14 | Cc1cccc2sc(C3=CSC4=NCCN34)cc12.Cl [Example 14, 3-(4-methylbenzo[b]thiophen-2-yl)-5,6-dihydroimidazo[2,1-b]thiazole hydrochloride] | 238 to 245 °C | 87% | 96% |  |  | 
15 | OCC1=C(c2cc3ccccc3s2)N2CCN=C2S1 [Example 15, [3-(benzo[b]thiophen-2-yl)-5,6-dihydroimidazo[2,1-b]thiazol-2-yl]methanol] | 138 to 140 °C |  | 75% | 18 nM |  | 
16 | Br.CC1=C(c2cc3c(C)cccc3s2)N2CCN=C2S1 [Example 16, 2-methyl-3-(4-methylbenzo[b]thiophen-2-yl)-5,6-dihydroimidazo[2,1-b]thiazole hydrobromide] | 201 to 204 °C | 83% | 93% |  |  | 
17 | Br.CC1(c2cc3cc(F)ccc3s2)CSC2=NCCN21 (stereo not drawn) [Example 27, 3-(5-fluorobenzo[b]thiophen-2-yl)-3-methyl-5,6-dihydroimidazo[2,1-b]thiazole hydrobromide] |  | 72% | 85% |  |  | 
18 | CC(C)C1=C(c2ccc3sccc3c2)N2CCN=C2S1 [Example 29, 3-(benzo[b]thiophen-5-yl)-2-(1-methylethyl)-5,6-dihydroimidazo[2,1-b]-thiazole] |  |  |  | 3.7 nM | 4.1 nM | 
19 | CSC1=C(c2ccc3sccc3c2)N2CCN=C2S1 [Example 30, 3-(benzo[b]thiophen-5-yl)-2-(methylthio)-5,6-dihydroimidazo[2,1-b]thiazole] |  |  | 95% |  |  | 101%
